Seven compounds from ChEMBL document CHEMBL1201862, “PubChem BioAssay data set” (2004) can be followed below.

What is called Ki is the equilibrium dissociation constant of an inhibitor or competing ligand from its target. The term EC50 denotes the concentration needed to bring the measured effect to its halfway point. By AC50 is commonly meant the concentration giving half of the maximal activity seen.

For assay [1], the target named is Dual specificity protein kinase CLK2 (Homo sapiens, UniProt P49760). The class given is functional.
Dual specificity protein kinase CLK2, sequence (P49760 whole entry): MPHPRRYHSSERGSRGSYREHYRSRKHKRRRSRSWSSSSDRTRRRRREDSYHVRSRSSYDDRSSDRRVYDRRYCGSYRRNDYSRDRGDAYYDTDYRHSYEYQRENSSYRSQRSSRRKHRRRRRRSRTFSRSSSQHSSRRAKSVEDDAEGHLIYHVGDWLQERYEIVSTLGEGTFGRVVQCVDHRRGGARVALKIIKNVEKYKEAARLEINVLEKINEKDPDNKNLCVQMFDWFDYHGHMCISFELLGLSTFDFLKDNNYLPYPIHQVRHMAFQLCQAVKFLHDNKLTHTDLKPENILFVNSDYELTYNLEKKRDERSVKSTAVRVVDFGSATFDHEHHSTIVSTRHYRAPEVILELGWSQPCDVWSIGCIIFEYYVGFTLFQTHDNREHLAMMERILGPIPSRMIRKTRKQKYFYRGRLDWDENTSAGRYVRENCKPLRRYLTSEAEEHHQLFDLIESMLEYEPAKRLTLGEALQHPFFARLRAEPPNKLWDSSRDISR
Assay [2] deals with T1, Inhibitor of nuclear factor kappa-B kinase subunit epsilon (Homo sapiens, UniProt Q14164).
T1 sequence (Q14164 whole entry): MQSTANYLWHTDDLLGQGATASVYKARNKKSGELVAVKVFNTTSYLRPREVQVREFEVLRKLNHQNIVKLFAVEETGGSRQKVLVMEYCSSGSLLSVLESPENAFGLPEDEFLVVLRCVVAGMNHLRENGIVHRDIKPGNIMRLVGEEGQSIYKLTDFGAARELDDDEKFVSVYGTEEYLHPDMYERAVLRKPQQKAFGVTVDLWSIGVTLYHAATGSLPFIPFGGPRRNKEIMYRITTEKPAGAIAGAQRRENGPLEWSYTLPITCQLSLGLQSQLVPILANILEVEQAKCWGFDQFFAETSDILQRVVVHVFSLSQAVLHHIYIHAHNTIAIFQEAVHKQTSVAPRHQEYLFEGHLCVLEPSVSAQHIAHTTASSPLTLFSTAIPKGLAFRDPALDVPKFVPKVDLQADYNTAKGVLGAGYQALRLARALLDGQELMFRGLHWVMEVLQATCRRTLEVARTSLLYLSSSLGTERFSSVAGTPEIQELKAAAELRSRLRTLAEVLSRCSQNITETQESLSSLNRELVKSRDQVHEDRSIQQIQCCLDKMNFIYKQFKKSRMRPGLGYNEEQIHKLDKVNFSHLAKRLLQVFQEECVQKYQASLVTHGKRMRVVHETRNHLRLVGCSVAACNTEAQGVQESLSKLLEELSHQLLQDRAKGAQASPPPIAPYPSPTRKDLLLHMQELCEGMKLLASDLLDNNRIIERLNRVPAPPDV
Description: Navigating the Kinome. Panel member name: IKBKE. The class given is functional.

The target in assay [3] is Mitogen-activated protein kinase 9 (Homo sapiens, UniProt P45984). It counts as functional.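 Also: value from a kinome panel profiling assay, MAPK9 panel entry.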
Mitogen-activated protein kinase 9, sequence (P45984 whole entry): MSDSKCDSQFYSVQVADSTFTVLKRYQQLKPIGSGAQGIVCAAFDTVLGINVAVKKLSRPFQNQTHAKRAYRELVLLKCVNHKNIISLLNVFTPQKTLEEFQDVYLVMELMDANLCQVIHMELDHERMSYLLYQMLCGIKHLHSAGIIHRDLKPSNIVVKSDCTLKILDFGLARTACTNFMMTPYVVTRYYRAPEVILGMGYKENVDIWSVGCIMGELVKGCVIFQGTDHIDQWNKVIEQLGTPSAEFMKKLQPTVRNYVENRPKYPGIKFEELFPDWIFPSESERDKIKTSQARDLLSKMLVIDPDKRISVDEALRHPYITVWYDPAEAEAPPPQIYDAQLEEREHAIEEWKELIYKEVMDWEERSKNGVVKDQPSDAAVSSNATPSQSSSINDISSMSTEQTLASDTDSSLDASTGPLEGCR
Assay [4] has as its target T2, Serine/threonine-protein kinase TAO1 (Homo sapiens, UniProt Q7L7X3).
T2 sequence (Q7L7X3 whole entry): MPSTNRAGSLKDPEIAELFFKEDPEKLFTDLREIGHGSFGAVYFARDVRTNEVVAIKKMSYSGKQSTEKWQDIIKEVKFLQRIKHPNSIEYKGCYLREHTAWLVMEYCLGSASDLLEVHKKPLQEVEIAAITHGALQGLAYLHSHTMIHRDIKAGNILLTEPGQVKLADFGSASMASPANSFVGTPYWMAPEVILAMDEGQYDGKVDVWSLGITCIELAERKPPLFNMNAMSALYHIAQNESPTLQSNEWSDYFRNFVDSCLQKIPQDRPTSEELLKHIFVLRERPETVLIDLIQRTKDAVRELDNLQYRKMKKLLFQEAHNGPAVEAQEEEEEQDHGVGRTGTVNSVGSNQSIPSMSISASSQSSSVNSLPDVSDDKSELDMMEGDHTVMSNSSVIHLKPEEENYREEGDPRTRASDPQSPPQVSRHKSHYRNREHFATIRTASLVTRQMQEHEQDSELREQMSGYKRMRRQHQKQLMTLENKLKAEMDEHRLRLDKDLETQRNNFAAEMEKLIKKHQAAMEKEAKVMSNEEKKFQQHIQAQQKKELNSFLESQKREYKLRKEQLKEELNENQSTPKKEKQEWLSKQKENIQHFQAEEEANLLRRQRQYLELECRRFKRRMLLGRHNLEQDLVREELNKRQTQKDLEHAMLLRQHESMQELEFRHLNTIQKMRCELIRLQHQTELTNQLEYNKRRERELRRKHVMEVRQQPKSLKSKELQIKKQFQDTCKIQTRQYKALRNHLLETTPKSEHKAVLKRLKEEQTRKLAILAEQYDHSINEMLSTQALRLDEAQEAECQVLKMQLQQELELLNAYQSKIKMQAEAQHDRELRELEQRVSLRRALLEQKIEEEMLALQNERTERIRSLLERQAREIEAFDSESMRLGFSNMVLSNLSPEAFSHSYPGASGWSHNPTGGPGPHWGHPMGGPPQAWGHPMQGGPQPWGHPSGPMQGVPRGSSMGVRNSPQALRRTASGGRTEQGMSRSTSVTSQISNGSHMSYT
It counts as functional.

Assay [5] addresses Tyrosine-protein kinase JAK2 (Homo sapiens, UniProt O60674). The class given is functional.
Assay [6] concerns the target Cyclin-dependent kinase 8 (Homo sapiens, UniProt P49336). Nature of the assay: Navigating the Kinome. Panel member name: CDK8. The class given is functional.
In assay [7] the target is Vascular endothelial growth factor receptor 1 (Homo sapiens, UniProt P17948). The class given is functional.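 Also: measured within a kinome-wide profiling panel, FLT1 as the panel member.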
Vascular endothelial growth factor receptor 1, sequence (P17948 whole entry): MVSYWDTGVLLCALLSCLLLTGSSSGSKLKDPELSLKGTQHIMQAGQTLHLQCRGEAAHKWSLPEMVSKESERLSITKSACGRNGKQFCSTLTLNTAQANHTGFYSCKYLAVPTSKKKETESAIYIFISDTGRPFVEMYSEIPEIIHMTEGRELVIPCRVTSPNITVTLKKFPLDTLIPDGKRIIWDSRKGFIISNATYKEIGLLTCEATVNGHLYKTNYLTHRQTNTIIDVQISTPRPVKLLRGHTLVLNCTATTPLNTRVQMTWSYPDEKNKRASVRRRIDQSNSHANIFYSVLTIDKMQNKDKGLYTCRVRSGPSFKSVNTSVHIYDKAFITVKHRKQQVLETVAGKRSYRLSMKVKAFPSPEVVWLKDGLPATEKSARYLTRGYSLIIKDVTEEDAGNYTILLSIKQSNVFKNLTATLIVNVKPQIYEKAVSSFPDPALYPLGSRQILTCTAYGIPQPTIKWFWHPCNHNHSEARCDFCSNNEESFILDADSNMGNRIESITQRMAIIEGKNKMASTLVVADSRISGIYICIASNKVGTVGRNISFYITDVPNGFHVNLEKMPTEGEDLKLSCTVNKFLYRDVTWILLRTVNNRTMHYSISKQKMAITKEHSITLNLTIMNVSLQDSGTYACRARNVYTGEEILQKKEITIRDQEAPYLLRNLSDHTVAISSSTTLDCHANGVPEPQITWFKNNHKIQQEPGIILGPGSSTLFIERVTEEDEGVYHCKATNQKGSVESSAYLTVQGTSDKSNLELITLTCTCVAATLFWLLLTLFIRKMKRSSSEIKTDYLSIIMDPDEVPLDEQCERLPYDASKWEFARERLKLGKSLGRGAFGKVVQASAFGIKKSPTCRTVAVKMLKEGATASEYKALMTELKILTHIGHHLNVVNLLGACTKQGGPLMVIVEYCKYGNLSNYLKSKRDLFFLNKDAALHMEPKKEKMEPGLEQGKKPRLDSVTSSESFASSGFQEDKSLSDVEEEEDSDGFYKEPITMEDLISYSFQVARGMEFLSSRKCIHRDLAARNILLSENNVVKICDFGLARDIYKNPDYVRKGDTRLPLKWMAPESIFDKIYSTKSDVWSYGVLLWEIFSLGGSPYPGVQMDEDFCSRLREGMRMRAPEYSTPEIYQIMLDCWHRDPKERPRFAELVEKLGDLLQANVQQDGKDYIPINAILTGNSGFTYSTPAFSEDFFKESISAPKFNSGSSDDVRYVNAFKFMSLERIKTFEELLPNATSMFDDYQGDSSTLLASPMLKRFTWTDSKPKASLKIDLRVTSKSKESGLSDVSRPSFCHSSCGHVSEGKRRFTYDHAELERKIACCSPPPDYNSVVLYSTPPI
The next assay deals with T3, Protein RecA (Mycobacterium tuberculosis, UniProt P9WHJ3).
T3 sequence (P9WHJ3 whole entry): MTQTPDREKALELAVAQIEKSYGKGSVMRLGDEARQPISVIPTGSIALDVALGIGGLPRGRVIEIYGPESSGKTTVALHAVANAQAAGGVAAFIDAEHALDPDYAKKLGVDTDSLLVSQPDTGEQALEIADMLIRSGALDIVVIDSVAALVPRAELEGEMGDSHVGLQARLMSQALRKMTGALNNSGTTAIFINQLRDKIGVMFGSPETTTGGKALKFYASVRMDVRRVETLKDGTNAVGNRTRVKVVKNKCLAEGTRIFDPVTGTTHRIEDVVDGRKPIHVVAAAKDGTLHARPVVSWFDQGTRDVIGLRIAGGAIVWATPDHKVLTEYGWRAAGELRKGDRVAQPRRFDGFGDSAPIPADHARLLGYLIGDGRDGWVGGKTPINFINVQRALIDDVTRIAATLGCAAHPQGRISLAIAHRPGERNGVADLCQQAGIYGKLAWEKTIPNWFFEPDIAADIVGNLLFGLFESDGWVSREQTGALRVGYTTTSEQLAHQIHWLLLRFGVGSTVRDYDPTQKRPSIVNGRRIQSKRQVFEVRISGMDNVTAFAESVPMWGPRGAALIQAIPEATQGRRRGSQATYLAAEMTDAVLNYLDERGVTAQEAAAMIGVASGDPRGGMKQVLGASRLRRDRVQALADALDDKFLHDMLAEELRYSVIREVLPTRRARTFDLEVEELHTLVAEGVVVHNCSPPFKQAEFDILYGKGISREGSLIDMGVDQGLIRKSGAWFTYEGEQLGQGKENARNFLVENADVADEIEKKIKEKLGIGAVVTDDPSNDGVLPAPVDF
Nature of the assay: Fluorescence Cell-Free Homogeneous Dose Retest to Identify Inhibitors of RecA-Intein Splicing Activity. [Related pubchem assays (depositor defined):AID2097, AID2223, AID489010, AID492950]. It counts as functional.

In a further assay the test system is INS1. Nature of the assay: beta cell apoptosis inhibitors, cytokine rescue, dose response, luminescence, retest (AID 449756).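 Also: cell death triggered by IL-1 beta plus TNF-alpha plus IFN-gamma mixture; protective hits raise ATP signal compared with cytokine alone wells.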 To be noted: Rattus norvegicus. It counts as functional, cell-based.

Active and inactive are the calls of the source.

Cyclin-dependent kinase 8, sequence (P49336 whole entry): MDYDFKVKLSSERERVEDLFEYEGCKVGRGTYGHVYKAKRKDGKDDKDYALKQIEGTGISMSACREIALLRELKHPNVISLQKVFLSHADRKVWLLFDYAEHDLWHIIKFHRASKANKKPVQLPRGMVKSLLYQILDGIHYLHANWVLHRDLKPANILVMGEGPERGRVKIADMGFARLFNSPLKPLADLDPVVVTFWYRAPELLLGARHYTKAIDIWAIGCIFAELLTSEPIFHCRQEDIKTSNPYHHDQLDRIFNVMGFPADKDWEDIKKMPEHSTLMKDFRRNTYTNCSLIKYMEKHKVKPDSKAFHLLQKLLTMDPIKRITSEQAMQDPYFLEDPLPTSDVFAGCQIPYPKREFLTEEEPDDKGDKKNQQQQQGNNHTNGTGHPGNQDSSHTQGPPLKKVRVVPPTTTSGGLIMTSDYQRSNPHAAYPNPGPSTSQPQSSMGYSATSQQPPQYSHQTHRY
Tyrosine-protein kinase JAK2, sequence (O60674 whole entry): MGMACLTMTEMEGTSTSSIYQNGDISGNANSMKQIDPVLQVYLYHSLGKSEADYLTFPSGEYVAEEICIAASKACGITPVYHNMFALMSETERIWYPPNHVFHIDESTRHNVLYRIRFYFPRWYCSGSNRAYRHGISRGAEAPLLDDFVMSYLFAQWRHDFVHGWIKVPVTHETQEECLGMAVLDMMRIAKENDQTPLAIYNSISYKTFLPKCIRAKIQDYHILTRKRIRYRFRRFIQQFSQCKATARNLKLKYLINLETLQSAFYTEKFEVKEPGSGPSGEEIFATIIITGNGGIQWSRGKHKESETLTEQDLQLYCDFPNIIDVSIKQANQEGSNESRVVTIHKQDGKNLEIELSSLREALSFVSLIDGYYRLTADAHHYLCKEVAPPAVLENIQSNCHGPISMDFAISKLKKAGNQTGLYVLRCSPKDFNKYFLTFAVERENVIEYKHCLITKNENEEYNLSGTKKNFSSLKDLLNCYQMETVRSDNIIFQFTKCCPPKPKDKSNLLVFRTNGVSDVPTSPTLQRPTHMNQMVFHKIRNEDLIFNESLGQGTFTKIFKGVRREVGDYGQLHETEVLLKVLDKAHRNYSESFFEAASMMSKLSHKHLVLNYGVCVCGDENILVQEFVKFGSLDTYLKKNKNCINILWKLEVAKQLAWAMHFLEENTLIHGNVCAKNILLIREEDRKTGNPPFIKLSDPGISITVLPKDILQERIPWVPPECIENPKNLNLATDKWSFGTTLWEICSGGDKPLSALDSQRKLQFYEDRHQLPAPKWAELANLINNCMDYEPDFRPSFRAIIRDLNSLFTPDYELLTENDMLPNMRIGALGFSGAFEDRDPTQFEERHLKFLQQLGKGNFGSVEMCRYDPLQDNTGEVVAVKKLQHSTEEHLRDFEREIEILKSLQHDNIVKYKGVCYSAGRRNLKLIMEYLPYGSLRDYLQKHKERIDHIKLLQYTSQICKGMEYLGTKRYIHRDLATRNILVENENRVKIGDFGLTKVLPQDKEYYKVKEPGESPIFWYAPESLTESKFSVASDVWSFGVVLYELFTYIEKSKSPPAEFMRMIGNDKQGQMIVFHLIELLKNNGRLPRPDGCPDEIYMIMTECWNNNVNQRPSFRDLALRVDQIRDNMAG

Consider `CCC1CC(NS(=O)(=O)C2CC2)CC1c1ncc2cnc3[nH]ccc3n12` (configuration not stated), for which the Ki was > 3.98 µM (inactive) in assay [1]; > 3.16 µM (inactive) in [2]; > 3.98 µM (inactive) in assay [3]; > 2 µM (inactive) in [4]; 0.000126 µM (active) in [5]; > 3.16 µM (inactive) in assay [6]. Moreover, the Ki in assay [7] is > 3.98 µM (inactive).
Turning to `O=C(Nc1cccc(C(F)(F)F)n1)Nc1ccnc2cc(OC(F)F)ccc12`, the Ki in assay [1] was > 3.98 µM (inactive); in [2], > 3.16 µM (inactive); in [3] it was > 3.98 µM (inactive); in [4], > 6.31 µM (inactive); in assay [5], > 2.51 µM (inactive); in assay [6], > 3.98 µM (inactive). For the same compound, the Ki in assay [7] is > 3.98 µM (inactive).
`O=c1[nH]c2cc(Br)cnc2[nH]1`: the Ki in [1] is 25.1 µM (active); in assay [2] it was 39.8 µM (active); in [4], 12.6 µM (active); in [5], 79.4 µM (active); in assay [6] it was 7.94 µM (active); in assay [7], 10 µM (active).
As to `O=C(Cc1ccccc1)NC1(O)C(=O)c2ccccc2C1=O`, the EC50 at Protein RecA was 8670 nM (active).
Regarding `COC(=O)c1nc(-c2ccc3c(n2)C(=O)C(=N)C(OC)=C3O)c(N)c(-c2ccc(OC)c(OC)c2O)c1C`, on Protein RecA, the EC50 is 342 nM (active). Moreover, in the assay with INS1, the AC50 was 1.56 µM (active).
`Cc1cc(C)c(S(=O)(=O)/N=C2\C=C(Nc3ccc(C(=O)O)cc3)C(=O)c3ccccc32)c(C)c1`: the EC50 at Protein RecA was 69.6 nM (active). Also, the AC50 in the assay on INS1 was 2.51 µM (active).
As to `O=C(Nc1cccc(C(F)(F)F)n1)Nc1ccnc2cc(Cl)ccc12`, the Ki in assay [1] is > 3.98 µM (inactive); in assay [2], > 3.16 µM (inactive); in [3], > 3.98 µM (inactive); in assay [4] it was > 6.31 µM (inactive); in [5], 2.51 µM (active); in assay [6] it was > 3.98 µM (inactive). In addition, the Ki in assay [7] is > 3.98 µM (inactive).
